Measurements as given in BigSolDB 2.1.

## c1cc2c3c(cccc3c1)CC2
In acetone, 283 K
  solubility (mole fraction): 0.0417
In acetone, 288 K
  solubility (mole fraction): 0.0491
In acetone, 293 K
  solubility (mole fraction): 0.0587
In acetone, 298 K
  solubility (mole fraction): 0.0692
In acetone, 303 K
  solubility (mole fraction): 0.0788
In acetone, 308.1 K
  solubility (mole fraction): 0.0954
In acetone, 313 K
  solubility (mole fraction): 0.113
In acetone, 318 K
  solubility (mole fraction): 0.136
In acetone, 323 K
  solubility (mole fraction): 0.173
In benzene, 283 K
  solubility (mole fraction): 0.118
In benzene, 288 K
  solubility (mole fraction): 0.131
In benzene, 293.2 K
  solubility (mole fraction): 0.142
In benzene, 298 K
  solubility (mole fraction): 0.162
In benzene, 303 K
  solubility (mole fraction): 0.187
In benzene, 308.3 K
  solubility (mole fraction): 0.215
In benzene, 313 K
  solubility (mole fraction): 0.244
In benzene, 318 K
  solubility (mole fraction): 0.277
In benzene, 323 K
  solubility (mole fraction): 0.312
In isobutanol, 283 K
  solubility (mole fraction): 0.00926
In isobutanol, 288.1 K
  solubility (mole fraction): 0.0128
In isobutanol, 293.2 K
  solubility (mole fraction): 0.0162
In isobutanol, 298 K
  solubility (mole fraction): 0.0205
In isobutanol, 303.3 K
  solubility (mole fraction): 0.0253
In isobutanol, 308 K
  solubility (mole fraction): 0.0297
In isobutanol, 313.1 K
  solubility (mole fraction): 0.0353
In isobutanol, 318 K
  solubility (mole fraction): 0.0435
In isobutanol, 323 K
  solubility (mole fraction): 0.0565
In m-xylene, 283 K
  solubility (mole fraction): 0.109
In m-xylene, 288 K
  solubility (mole fraction): 0.129
In m-xylene, 293 K
  solubility (mole fraction): 0.143
In m-xylene, 298 K
  solubility (mole fraction): 0.163
In m-xylene, 303.1 K
  solubility (mole fraction): 0.188
In m-xylene, 308.2 K
  solubility (mole fraction): 0.216
In m-xylene, 313 K
  solubility (mole fraction): 0.245
In m-xylene, 318 K
  solubility (mole fraction): 0.281
In m-xylene, 323 K
  solubility (mole fraction): 0.321
In n-propanol, 283 K
  solubility (mole fraction): 0.00879
In n-propanol, 288.1 K
  solubility (mole fraction): 0.012
In n-propanol, 293.2 K
  solubility (mole fraction): 0.0144
In n-propanol, 298 K
  solubility (mole fraction): 0.0175
In n-propanol, 303.3 K
  solubility (mole fraction): 0.0208
In n-propanol, 308 K
  solubility (mole fraction): 0.0246
In n-propanol, 313.1 K
  solubility (mole fraction): 0.0295
In n-propanol, 318 K
  solubility (mole fraction): 0.0364
In n-propanol, 323 K
  solubility (mole fraction): 0.0464
